Measurements published in BigSolDB 2.1.

SMILES: COc1ccc2nc(SCc3ncc(C)c(OC)c3C)[nH]c2c1
- solubility (mole fraction) (in acetone, 280.35 K): 0.005
- solubility (mole fraction) (in acetone, 284.35 K): 0.0065
- solubility (mole fraction) (in acetone, 288.15 K): 0.0083
- solubility (mole fraction) (in acetone, 292.25 K): 0.0108
- solubility (mole fraction) (in acetone, 296.65 K): 0.014
- solubility (mole fraction) (in acetone, 300.25 K): 0.0172
- solubility (mole fraction) (in acetone, 303.15 K): 0.0203
- solubility (mole fraction) (in acetone, 307.65 K): 0.0263
- solubility (mole fraction) (in acetone, 311.15 K): 0.0319
- solubility (mole fraction) (in acetone, 315.15 K): 0.039
- solubility (mole fraction) (in acetone, 319.65 K): 0.0496
- solubility (mole fraction) (in ethanol, 280.35 K): 0.0144
- solubility (mole fraction) (in ethanol, 284.35 K): 0.0189
- solubility (mole fraction) (in ethanol, 288.15 K): 0.0248
- solubility (mole fraction) (in ethanol, 292.25 K): 0.0323
- solubility (mole fraction) (in ethanol, 296.65 K): 0.0412
- solubility (mole fraction) (in ethanol, 300.25 K): 0.0511
- solubility (mole fraction) (in ethanol, 303.15 K): 0.0606
- solubility (mole fraction) (in ethanol, 307.65 K): 0.0775
- solubility (mole fraction) (in ethanol, 311.15 K): 0.0946
- solubility (mole fraction) (in ethanol, 315.15 K): 0.115
- solubility (mole fraction) (in ethanol, 319.65 K): 0.141
- solubility (mole fraction) (in ethyl acetate, 280.35 K): 0.0033
- solubility (mole fraction) (in ethyl acetate, 284.35 K): 0.004
- solubility (mole fraction) (in ethyl acetate, 288.15 K): 0.0049
- solubility (mole fraction) (in ethyl acetate, 292.25 K): 0.0058
- solubility (mole fraction) (in ethyl acetate, 296.65 K): 0.0073
- solubility (mole fraction) (in ethyl acetate, 300.25 K): 0.0085
- solubility (mole fraction) (in ethyl acetate, 303.15 K): 0.0098
- solubility (mole fraction) (in ethyl acetate, 307.65 K): 0.0122
- solubility (mole fraction) (in ethyl acetate, 311.15 K): 0.0142
- solubility (mole fraction) (in ethyl acetate, 315.15 K): 0.0165
- solubility (mole fraction) (in ethyl acetate, 319.65 K): 0.0208
- solubility (mole fraction) (in isopropanol, 280.35 K): 0.0032
- solubility (mole fraction) (in isopropanol, 284.35 K): 0.0044
- solubility (mole fraction) (in isopropanol, 288.15 K): 0.0058
- solubility (mole fraction) (in isopropanol, 292.25 K): 0.0079
- solubility (mole fraction) (in isopropanol, 296.65 K): 0.0108
- solubility (mole fraction) (in isopropanol, 300.25 K): 0.014
- solubility (mole fraction) (in isopropanol, 303.15 K): 0.0172
- solubility (mole fraction) (in isopropanol, 307.65 K): 0.0234
- solubility (mole fraction) (in isopropanol, 311.15 K): 0.0286
- solubility (mole fraction) (in isopropanol, 315.15 K): 0.037
- solubility (mole fraction) (in isopropanol, 319.65 K): 0.0482
- solubility (mole fraction) (in methanol, 280.35 K): 0.0127
- solubility (mole fraction) (in methanol, 284.35 K): 0.0178
- solubility (mole fraction) (in methanol, 288.15 K): 0.0239
- solubility (mole fraction) (in methanol, 292.25 K): 0.0322
- solubility (mole fraction) (in methanol, 296.65 K): 0.0442
- solubility (mole fraction) (in methanol, 300.25 K): 0.0559
- solubility (mole fraction) (in methanol, 303.15 K): 0.0668
- solubility (mole fraction) (in methanol, 307.65 K): 0.0887
- solubility (mole fraction) (in methanol, 311.15 K): 0.11
- solubility (mole fraction) (in methanol, 315.15 K): 0.138
- solubility (mole fraction) (in methanol, 319.65 K): 0.172
- solubility (mole fraction) (in n-butanol, 280.35 K): 0.0103
- solubility (mole fraction) (in n-butanol, 284.35 K): 0.0134
- solubility (mole fraction) (in n-butanol, 288.15 K): 0.0171
- solubility (mole fraction) (in n-butanol, 292.25 K): 0.0218
- solubility (mole fraction) (in n-butanol, 296.65 K): 0.0292
- solubility (mole fraction) (in n-butanol, 300.25 K): 0.0356
- solubility (mole fraction) (in n-butanol, 303.15 K): 0.0425
- solubility (mole fraction) (in n-butanol, 307.65 K): 0.0549
- solubility (mole fraction) (in n-butanol, 311.15 K): 0.0661
- solubility (mole fraction) (in n-butanol, 315.15 K): 0.0824
- solubility (mole fraction) (in n-butanol, 319.65 K): 0.104
- solubility (mole fraction) (in n-propanol, 280.35 K): 0.0076
- solubility (mole fraction) (in n-propanol, 284.35 K): 0.0101
- solubility (mole fraction) (in n-propanol, 288.15 K): 0.0134
- solubility (mole fraction) (in n-propanol, 292.25 K): 0.0178
- solubility (mole fraction) (in n-propanol, 296.65 K): 0.0234
- solubility (mole fraction) (in n-propanol, 300.25 K): 0.0296
- solubility (mole fraction) (in n-propanol, 303.15 K): 0.0359
- solubility (mole fraction) (in n-propanol, 307.65 K): 0.047
- solubility (mole fraction) (in n-propanol, 311.15 K): 0.0567
- solubility (mole fraction) (in n-propanol, 315.15 K): 0.0713
- solubility (mole fraction) (in n-propanol, 319.65 K): 0.0914
